Entries after “also recorded” stand apart in the source; their conditions may differ. Like-named read-outs stand apart in the source and are kept apart here.
Assays:
[1] = Pharmacokinetics of GHB after two consecutive 3 g oral doses in narcoleptic patients; assay type: in vivo, human; conditions: for Cmax: po, read-out: maximum GHB concentration (Cmax), mean ±SD
Experimental: The objective of this study was to assess the pharmacokinetics of GHB after oral administration of two consecutive single doses of GHB (3 g/dose; patients generally ingested the first dose of this medication prior to bedtime and the second dose from 2.5 to 4.0 h later) to narcoleptic patients who are maintained on a chronic regimen of GHB.
This pharmacokinetic study was conducted as an open-label, single-center investigation in 6 narcoleptic patients. The study design is summarized as follows:
Before oral administration of the first GHB dose, an indwelling catheter was placed in an arm vein and a baseline blood sample was collected. Each patient then ingested a 3 g dose of GHB before bedtime. Another 3 g GHB dose was administered 4 h after the first dose. Twenty-one sequential blood samples were collected over 12 h (starting at 10 min after the first dose and ending at 8 h after the second dose). Upon completion of the treatment phase, a follow-up physical examination which included the measurement of vital signs was performed on each patient within 48 h after the last blood sample. A detailed description of the trial methodology is presented in Section IV.
All patients were hospitalized from approximately four hours prior to first GHB dosing (around 6 p.m.) until the end of the treatment period (around 10 a.m. the next morning). Patients ate their dinner at the clinical research unit soon after arrival and fasted until breakfast next morning. At least three hours elapsed between the completion of dinner and the administration of the first GHB dose. An indwelling catheter was placed in an arm vein of each patient for blood sampling at approximately 30 min and 1 h before the first GHB dose and a baseline blood sample (5 mL) was collected.
The first GHB dose (3 g) was administered at around 10 p.m. Dosing of individual patients were staggered. The second GHB dose was administered at 4 h after the first GHB dose (i.e. immediately after the 4 h blood sample). The exact dosing times in each patient were recorded on appropriate CRF pages. Blood samples (5 mL each) were collected through the indwelling catheter into heparinized tubes at 0.2, 0.4, 0.6, 0.8, 1, 1.5, 2, 3, 4, 4.2, 4.4, 4.6, […], 5, 5.5, […], 7, 8, 10, and 12 h after the first GHB dose. Blood samples were processed according to the procedures described herein. Patients were monitored for adverse experiences throughout the study according to the specific procedures.
Dose Administration: The investigator or designee prepared the oral solution for dosing within 30 min prior to the first oral administration to individual patients. The contents of one twin-pouch was emptied into a dosing cup to which two ounces of water were added. After replacing the lid of the dosing cup, it was gently shaken to dissolve the GHB and excipient in water. The GHB solution was ingested in its entirety. Likewise, the second GHB dosing solution was prepared in the same manner and was ingesting in its entirety at 4 h after the first GHB dose.
Plasma samples were analyzed for GHB by the Department of Bioanalytical Chemistry (Covance (previously known as Hazelton Corning), Madison, Wis.) A gas chromatographic method with mass selective detection (GC-MSD) was used in the analysis.
Pharmacokinetic Analysis: Pharmacokinetic parameters were determined for individual sets of plasma GHB concentration vs. time data using the non-compartmental routine in WinNonlin Version 1.1. The peak GHB concentrations (Cmax) and the times of their respectively occurrences (tmax) were observed values. Terminal half-life (T1/2) was obtained by log-linear regression analysis of the terminal phase of concentration vs. time curves. The area under the curve (AUCinf) and the area under the first moment curve (AUMCinf) were calculated by the linear trapezoidal rule up to the last determined concentration and included extrapolated areas to time infinity. Apparent oral clearance (CL/F) was calculated as Dose/AUCinf. […]

[2] = Safety assessment in the pharmacokinetic study (adverse experiences, physical examination); assay type: in vivo, human
Experimental: Follow-up occurred within 48 h after the last blood sample had been collected. An abbreviated physical examination which included vital signs measurement was performed. Adverse experiences and concomitant medication use, if any, were assessed. Any ongoing adverse experiences and clinically important findings in a patient were followed to the investigator's and/or sponsor's satisfaction before the patient was discharged from the study.
An adverse experience are any undesirable event experienced by a patient or volunteer whether or not considered drug-related by the investigator. An undesirable event can be, but is not limited to, subjective symptoms experienced by a patient or, objective findings such as significant clinical laboratory abnormalities. Adverse experience is considered synonymous with the term “adverse event”.
The investigators report in detail all adverse experiences and symptoms that occurred during or following the course of trial drug administration for up to 2 days. Included in the description was the nature of the sign or symptom; the date of onset; date or resolution (duration); the severity; the relationship to trial treatment or other therapy; the action taken, if any; and the outcome.
Safety Analyses: Results of physical examinations, vital signs, clinical laboratory data were summarized in tabular form and presented by patient number. […]

[3] = alcohol dependent patients, cited from earlier work
[4] = Solubility of sodium oxybate (GHB) in aqueous solution versus pH; conditions: for State of 1000 mg/cc solution: pH unadjusted

O=C(O)CCCO [GHB, gamma-hydroxybutyrate]
highest plasma GHB concentration observed in the study ([1]; Subject 101 after the second 3 g GHB dose): 125.0 µg/mL | mean observed time to maximum concentration ([1]; after the first GHB dose): 40 ± 6 min | mean observed time to maximum concentration ([1]; after the second GHB dose): 36 ± 7 min | time by which plasma GHB concentrations were no longer detectable ([1]; after the second GHB dose (10 h after the first GHB dose)): ≤ 6 h | Tmax ([1]; human, plasma, oral, 3 g, after dosing (discussion)): ~40 min | concentration at 4 h ([1]; human, plasma, oral, 3 g, at h 4 after the first GHB dose, in three of six patients, read-out: residual GHB levels): ~15 µg/mL | half-life ([1]; human, plasma, oral, narcoleptic patients, read-out: elimination half-life of GHB): < 60 min | half-life ([1]; human, plasma, oral, terminal phase of the second GHB dose, read-out: mean GHB T1/2 (elimination half-life)): 53 ± 19 min | Cmax ([1]; human, plasma, 3 g, first 3 g oral GHB dose, 6 narcoleptic patients): 62.8 ± 27.4 µg/mL | Cmax ([1]; human, plasma, 3 g, second 3 g oral GHB dose (4 h after the first)): 91.2 ± 25.6 µg/mL | AUC(0-inf) ([1]; human, plasma, two 3 g oral doses 4 h apart, read-out: mean AUCinf (converted)): 296 µg·h/mL | CL/F ([1]; human, plasma, two 3 g oral doses 4 h apart, read-out: mean CL/F (apparent oral clearance)): 4.2 ± 1 mL/min/kg | MRT inf ([1]; human, plasma, two 3 g oral doses 4 h apart, read-out: mean MRTinf (converted)): 249 min | Vd/F ([1]; human, plasma, two 3 g oral doses 4 h apart, read-out: mean Vz/F): 0.307 ± 0.096 L/kg | mean GHB T1/2 (elimination half-life) ([1]; terminal phase of the second GHB dose): ~35 min | adverse experiences / tolerability ([2]; narcoleptic patients, two 3 g oral doses): No adverse experiences were reported; also recorded: well tolerated | follow-up physical examination results ([2]; screen versus follow-up, per individual patient): did not identify any changes attributable to GHB | apparent oral clearance ([3]; 25 mg/kg dose (Ferrara, 1992)): 8.1 ± 4.8 mL/min/kg | apparent oral clearance ([3]; dose of 50 mg/kg (Ferrara, 1992)): 5.3 ± 2.2 mL/min/kg | solubility ([4]; aqueous medium, 25 °C, thermodynamic from solid): ≤ 750 mg/mL | solubility ([4]; aqueous medium, 100 °C, thermodynamic from solid): ≥ 1000 mg/mL

O=C(O)CCCO [Sodium Oxybate, sodium oxybate]
solubility ([4]; 500 mg/cc with Malic Acid at pH 5.0): not soluble | solubility ([4]; aqueous medium, 25 °C, pH 4, aqueous buffer, thermodynamic from solid): 450 mg/mL | solubility ([4]; aqueous medium, 25 °C, pH 5, aqueous buffer, thermodynamic from solid): 500 mg/mL | solubility ([4]; aqueous medium, 25 °C, pH 6, aqueous buffer, thermodynamic from solid): 600 mg/mL | solubility ([4]; aqueous medium, 25 °C, pH 6.8, aqueous buffer, thermodynamic from solid): 750 mg/mL | solubility ([4]; aqueous medium, 25 °C, pH 10.3, thermodynamic from solid): ≥ 750 mg/mL | solubility ([4]; aqueous medium, 65 °C, thermodynamic from solid): 1000 mg/mL | Maxium Solubility ([4]; pH 4 (HCl), 25°): 450 mg/cc | Maxium Solubility ([4]; pH 5 (HCl), 25°): 500 mg/cc | Maxium Solubility ([4]; pH 6 (HCl), 25°): 600 mg/cc | Maxium Solubility ([4]; pH 6.8 (HCl), 25°): 750 mg/cc | Maxium Solubility ([4]; pH 10.3, 25°): 750 mg/cc + | Maxium Solubility ([4]; pH (unadjusted), 65° Soluble, 25° Gel): 1000 mg/cc | State of 1000 mg/cc solution ([4]; 25°): Gel | State of 1000 mg/cc solution ([4]; 65°): Soluble,

From patent US20130143965A1, “MICROBI[…] AND STABLE SOLUTIONS OF GAMMA-HYDRO[…] FOR THE TREATMENT OF NARCOLEPSY” (Jazz Pharmaceuticals, Inc., priority 1998, published 2013)
